Source: ChEMBL document CHEMBL1201862, “PubChem BioAssay data set” (2004)
The source made the active and inactive calls. Rule as the data show it, for most assays here: actives have a measured EC50 and inactives only a lower limit.

Experiments:
[1] = Luminescence Cell-Based Dose Confirmation HTS to Identify Activators of 5'UTR Stem-Loop Driven Alpha-Synuclein mRNA Translation in H4 Neuroglioblastoma Cells. [Related pubchem assays: 1829 (Project Summary), 1814 (Primary HTS)]; assay type: functional
[2] = Luminescence Cell-Based Dose Response HTS to Identify Activators of Luciferase Translation or Activity in H4 […] Cells. [Related pubchem assays: 1829 (Project Summary), 1814 (Primary HTS)]; assay type: functional
BJ [3] = experiment: cytotoxicity toward BJ-TERT fibroblasts, dose response, cell-based, RAS-independent, luminescence (AID 1933); assay type: functional; conditions: Homo sapiens
H4 = experiment: Luminescence Cell-Based Dose Response HTS to Identify Activators of 5'UTR Stem-Loop Driven Prion Protein mRNA Translation in H4 Neuroglioblastoma Cells. [Related pubchem assays: 1829 (Project Summary), 1814 (Primary HTS)]; assay type: functional; conditions: Homo sapiens
BJ [4] = experiment: cells; assay type: functional, cell-based; conditions: Homo sapiens
BJ [5] = experiment: cytotoxicity toward BJ-TERT-LT-ST fibroblasts, dose response, cell-based, RAS-independent, luminescence (AID 1935); assay type: functional; conditions: Homo sapiens;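 also: BJ fibroblasts immortalized with TERT plus LT and ST oncogenes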
[6] = cytotoxicity toward DRD oncogenic fibroblasts, dose response, cell-based, non-viral oncogenic, luminescence (AID 1934); assay type: functional; conditions: Homo sapiens
BJ [7] = experiment: cytotoxicity toward Ras-transformed BJeLR fibroblasts, dose response, cell-based, alamar blue fluorescence, cherrypicked samples (AID 2631); assay type: functional; conditions: Homo sapiens;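 also: confirmatory dose-response assay in RAS-dependent BJ fibroblasts engineered with TERT, LT and ST, with cytotoxicity read by fluorescence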
Vero [8] = experiment: cells; assay type: functional; conditions: Chlorocebus sabaeus
[9] = A Cell Based Secondary Assay To Explore Cytotoxicity of Compounds that Sensitize Mycobacterium Tuberculosis to Beta-Lactam Antibiotics.; assay type: functional
[10] = target: Luciferin 4-monooxygenase (Photinus pyralis, UniProt P08659); experiment: firefly luciferase enzyme inhibitors, dose response, biochemical, luminescence (AID 1891)
Chain of Luciferin 4-monooxygenase (P08659 whole entry): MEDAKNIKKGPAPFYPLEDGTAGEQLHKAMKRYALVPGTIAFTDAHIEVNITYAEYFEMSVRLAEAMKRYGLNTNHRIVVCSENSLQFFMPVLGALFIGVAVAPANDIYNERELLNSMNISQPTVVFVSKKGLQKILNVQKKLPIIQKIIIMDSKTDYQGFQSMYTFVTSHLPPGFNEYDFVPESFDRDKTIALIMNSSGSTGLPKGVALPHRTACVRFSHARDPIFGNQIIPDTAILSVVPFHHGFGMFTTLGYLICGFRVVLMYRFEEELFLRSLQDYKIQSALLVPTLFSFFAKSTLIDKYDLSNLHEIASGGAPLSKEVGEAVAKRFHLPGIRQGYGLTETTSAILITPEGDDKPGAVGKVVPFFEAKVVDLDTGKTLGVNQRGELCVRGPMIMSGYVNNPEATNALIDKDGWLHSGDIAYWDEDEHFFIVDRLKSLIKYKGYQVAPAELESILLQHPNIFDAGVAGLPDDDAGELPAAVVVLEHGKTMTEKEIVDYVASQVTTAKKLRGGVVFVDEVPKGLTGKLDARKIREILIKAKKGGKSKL

[11] = Luminescence Cell-Based Dose Confirmation HTS to Identify Inhibitors of Platelet Dense Granule Release. [Related pubchem assays: 1663 (Primary HTS), 1678 (Summary of Project)]; assay type: functional
[12] = target: T1, Apoptotic protease-activating factor 1 (Homo sapiens, UniProt O14727); assay type: functional
T1 sequence (O14727 whole entry): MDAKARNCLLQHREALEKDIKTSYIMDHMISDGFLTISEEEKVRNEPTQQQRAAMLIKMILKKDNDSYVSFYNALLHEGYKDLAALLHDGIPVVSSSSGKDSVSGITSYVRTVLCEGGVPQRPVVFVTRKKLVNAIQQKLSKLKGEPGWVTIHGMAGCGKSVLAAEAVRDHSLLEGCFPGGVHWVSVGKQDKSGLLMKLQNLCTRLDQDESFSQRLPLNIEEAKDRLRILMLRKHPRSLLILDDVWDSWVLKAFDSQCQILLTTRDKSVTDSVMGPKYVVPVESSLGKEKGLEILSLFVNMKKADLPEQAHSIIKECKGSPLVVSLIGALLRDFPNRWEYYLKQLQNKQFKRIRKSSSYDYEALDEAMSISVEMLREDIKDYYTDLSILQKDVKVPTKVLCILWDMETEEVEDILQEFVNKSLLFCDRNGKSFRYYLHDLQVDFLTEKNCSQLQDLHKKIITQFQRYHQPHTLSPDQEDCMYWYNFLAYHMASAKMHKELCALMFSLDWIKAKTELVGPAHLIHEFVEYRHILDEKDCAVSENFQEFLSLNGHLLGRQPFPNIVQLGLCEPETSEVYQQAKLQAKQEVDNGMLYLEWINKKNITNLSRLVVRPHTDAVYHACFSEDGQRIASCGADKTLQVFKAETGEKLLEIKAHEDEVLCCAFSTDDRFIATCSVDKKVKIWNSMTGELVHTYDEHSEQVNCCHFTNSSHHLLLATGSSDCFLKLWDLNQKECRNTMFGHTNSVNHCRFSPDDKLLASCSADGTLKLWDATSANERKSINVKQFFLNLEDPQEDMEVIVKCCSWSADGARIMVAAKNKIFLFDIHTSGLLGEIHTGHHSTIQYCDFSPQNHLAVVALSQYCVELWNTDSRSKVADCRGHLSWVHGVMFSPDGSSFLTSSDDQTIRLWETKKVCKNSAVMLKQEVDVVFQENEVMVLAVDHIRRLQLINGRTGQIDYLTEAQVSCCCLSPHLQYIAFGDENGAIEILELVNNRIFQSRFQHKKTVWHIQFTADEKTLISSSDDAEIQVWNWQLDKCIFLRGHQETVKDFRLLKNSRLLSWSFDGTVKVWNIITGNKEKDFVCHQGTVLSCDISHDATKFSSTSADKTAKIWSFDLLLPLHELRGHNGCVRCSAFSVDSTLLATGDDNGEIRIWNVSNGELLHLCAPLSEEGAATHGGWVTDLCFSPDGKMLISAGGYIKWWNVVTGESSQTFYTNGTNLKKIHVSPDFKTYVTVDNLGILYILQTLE

[13] = tested on: Streptococcus sp. 'group A'; experiment: growth inhibition of control SK(-) GAS strain, dose response, counter-screen for streptokinase expression inhibitor project, luminescence, kanamycin, BacTiterGlo, confirmation (AID 1900); assay type: functional, organism-based
Streptokinase A = target: T2, Streptokinase A (Streptococcus pyogenes serotype M1, UniProt P10520); experiment: S. pyogenes streptokinase expression inhibitors, potency, dose response, plasminogen activation absorbance, OD405 (AID 1914); assay type: functional, Streptococcus pyogenes M1 GAS;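 also: secreted streptokinase activity via plasminogen activation per viability signal from cell pellet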
T2 sequence (P10520 whole entry): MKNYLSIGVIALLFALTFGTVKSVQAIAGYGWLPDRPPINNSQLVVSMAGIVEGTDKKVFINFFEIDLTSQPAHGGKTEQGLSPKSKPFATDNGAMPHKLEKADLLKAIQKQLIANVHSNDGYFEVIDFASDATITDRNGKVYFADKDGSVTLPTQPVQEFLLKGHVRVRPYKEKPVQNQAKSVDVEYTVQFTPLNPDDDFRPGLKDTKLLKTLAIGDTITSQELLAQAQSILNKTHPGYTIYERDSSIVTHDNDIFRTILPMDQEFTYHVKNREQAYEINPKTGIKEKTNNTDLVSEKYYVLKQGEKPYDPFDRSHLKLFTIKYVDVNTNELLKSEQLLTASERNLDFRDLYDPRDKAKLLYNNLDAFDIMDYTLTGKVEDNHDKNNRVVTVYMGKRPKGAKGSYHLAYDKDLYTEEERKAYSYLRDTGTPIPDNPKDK

Streptococcus = experiment: Group A Streptococcus viability loss, dose response, counter-screen for streptokinase expression inhibitor project, luminescence, BacTiterGlo (AID 1915); assay type: functional, organism-based;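 also: potency for reduction of bacterial viability or growth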
[14] = Luminescence Cell-Based Dose Retest to Confirm Inhibitors of Cancer Stem Cells. [Related pubchem assays (depositor defined):AID2717, AID2721]; assay type: functional; conditions: Homo sapiens
CHO = experiment: cytotoxicity in TLR9-MyD88 CHO cells, dose response, cytotoxicity control for TLR9-MyD88 binding inhibitor project, cell-based, luminescence (AID 588339); assay type: functional, hamster; conditions: Cricetulus griseus;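 also: CHO cells stably coexpressing TLR9 and MyD88 fusions from primary screen; compound exposure lasted 48 hours before viability readout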
[15] = target: T3, Replicative DNA helicase DnaB (Mycobacterium tuberculosis, UniProt P9WMR3); experiment: DnaB intein splicing inhibitors, dose response, biochemical, cell-free fluorescence (AID 449749); assay type: functional
T3 sequence (P9WMR3 whole entry): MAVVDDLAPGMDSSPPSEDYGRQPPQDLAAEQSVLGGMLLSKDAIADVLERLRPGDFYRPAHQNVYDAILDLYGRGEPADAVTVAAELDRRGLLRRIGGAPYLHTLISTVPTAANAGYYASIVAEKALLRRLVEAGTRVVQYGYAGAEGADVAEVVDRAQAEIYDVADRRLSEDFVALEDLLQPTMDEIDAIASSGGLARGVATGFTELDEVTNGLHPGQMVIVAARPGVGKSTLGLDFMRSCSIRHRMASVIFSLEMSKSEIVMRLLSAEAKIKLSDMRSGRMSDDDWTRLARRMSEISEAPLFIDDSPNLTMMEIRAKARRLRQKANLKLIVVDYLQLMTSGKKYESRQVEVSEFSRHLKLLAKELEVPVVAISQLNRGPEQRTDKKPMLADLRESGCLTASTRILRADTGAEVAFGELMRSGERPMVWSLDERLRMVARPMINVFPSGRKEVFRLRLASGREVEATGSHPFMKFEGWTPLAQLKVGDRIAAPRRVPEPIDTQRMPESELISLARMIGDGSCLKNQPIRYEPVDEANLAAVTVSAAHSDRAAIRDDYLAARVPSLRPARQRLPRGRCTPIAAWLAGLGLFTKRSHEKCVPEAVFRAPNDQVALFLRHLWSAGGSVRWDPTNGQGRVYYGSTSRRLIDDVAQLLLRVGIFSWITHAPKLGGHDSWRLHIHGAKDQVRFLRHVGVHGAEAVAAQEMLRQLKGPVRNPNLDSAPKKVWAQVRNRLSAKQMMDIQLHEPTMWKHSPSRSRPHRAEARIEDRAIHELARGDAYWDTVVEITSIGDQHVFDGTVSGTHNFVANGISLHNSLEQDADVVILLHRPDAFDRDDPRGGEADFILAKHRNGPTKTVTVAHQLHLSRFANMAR

Protein RecA = target: T4, Protein RecA (Mycobacterium tuberculosis, UniProt P9WHJ3); experiment: Fluorescence Cell-Free Homogeneous Dose Retest to Identify Inhibitors of RecA-Intein Splicing Activity. [Related pubchem assays (depositor defined):AID2097, AID2223, AID489010, AID492950]; assay type: functional
T4 sequence (P9WHJ3 whole entry): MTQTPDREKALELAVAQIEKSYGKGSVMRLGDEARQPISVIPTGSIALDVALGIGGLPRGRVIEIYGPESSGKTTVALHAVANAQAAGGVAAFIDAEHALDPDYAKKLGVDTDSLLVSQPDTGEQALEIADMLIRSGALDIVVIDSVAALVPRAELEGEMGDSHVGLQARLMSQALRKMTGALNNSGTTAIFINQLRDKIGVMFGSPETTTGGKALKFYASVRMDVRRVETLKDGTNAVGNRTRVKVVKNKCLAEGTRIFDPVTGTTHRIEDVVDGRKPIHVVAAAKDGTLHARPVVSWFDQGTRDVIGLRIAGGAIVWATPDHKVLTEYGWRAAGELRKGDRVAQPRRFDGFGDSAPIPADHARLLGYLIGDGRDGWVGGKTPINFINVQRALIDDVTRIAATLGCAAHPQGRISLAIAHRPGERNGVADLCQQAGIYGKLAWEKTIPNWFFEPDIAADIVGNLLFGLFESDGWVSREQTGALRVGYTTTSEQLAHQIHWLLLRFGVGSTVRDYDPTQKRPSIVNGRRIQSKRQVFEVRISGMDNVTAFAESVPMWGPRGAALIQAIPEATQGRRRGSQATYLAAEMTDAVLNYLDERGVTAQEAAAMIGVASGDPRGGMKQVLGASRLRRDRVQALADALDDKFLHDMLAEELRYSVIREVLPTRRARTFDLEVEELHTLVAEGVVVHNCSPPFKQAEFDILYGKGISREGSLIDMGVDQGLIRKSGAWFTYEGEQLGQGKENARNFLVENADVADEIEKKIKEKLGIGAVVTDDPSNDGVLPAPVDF

[16] = Shn3 3'UTR reporter inhibitors, dose response, cell-based, Clone20 osteoblasts, firefly luciferase, cherry-picked (AID 624132); assay type: functional;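 also: firefly luciferase luminescence from reporter carrying the Shn3 3'UTR in osteoblasts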
[17] = HepG2 cell cytotoxicity, dose response, cytotoxicity control for Shn3 inhibitor project, CellTiter-Glo, cherry-picked (AID 624134); assay type: functional, cell-based
[18] = control 3'UTR Renilla luciferase suppression, dose response, counter-screen for Shn3 inhibitor project, cell-based, Clone20-Shn3RL, cherry-picked (AID 624133); assay type: functional
[19] = target: ATP-binding cassette sub-family B member 6 (Homo sapiens, UniProt Q9NP58); experiment: ABCB6 transporter inhibitors, porphyrin accumulation, dose response, flow cytometry, K562-ABCB6 cells, cherry pick 02 (AID 624487); assay type: functional; conditions: read-out: EC50_MICROM
Chain of ATP-binding cassette sub-family B member 6 (Q9NP58 whole entry): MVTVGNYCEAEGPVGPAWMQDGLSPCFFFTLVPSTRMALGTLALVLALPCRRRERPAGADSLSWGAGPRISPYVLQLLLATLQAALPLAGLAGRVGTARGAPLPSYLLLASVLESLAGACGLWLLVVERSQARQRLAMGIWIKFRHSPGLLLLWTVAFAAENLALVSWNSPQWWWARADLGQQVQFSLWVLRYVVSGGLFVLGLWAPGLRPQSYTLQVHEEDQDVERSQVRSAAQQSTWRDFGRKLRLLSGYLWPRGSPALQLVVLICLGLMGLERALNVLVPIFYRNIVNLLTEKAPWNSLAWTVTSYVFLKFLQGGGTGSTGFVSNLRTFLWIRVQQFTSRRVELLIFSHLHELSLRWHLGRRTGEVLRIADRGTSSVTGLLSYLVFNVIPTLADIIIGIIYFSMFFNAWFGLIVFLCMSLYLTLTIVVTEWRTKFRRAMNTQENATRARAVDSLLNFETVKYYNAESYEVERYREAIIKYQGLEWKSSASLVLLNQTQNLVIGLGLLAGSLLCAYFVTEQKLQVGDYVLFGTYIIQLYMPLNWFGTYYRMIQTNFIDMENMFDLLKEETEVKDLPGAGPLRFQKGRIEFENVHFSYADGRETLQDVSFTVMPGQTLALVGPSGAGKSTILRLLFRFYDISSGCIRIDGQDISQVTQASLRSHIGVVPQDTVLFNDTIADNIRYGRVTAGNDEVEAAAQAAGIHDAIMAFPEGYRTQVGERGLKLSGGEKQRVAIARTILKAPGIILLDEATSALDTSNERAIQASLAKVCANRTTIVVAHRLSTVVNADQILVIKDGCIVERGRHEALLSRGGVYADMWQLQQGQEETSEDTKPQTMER

Vero [20] = experiment: host cell cytotoxicity of antiviral hits, dose response, cytotoxicity control for West Nile virus antiviral project, secondary assay (AID 1650); assay type: functional; conditions: Chlorocebus sabaeus
[21] = cytotoxicity in HPDE-C7 cells, cell-based, fluorescence, HTS (AID 430); assay type: functional; conditions: Homo sapiens
[22] = cytotoxicity in KRAS-transformed pancreatic duct cells, primary screen, cell-based, fluorescence, HTS (AID 431); assay type: functional; conditions: Homo sapiens;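 also: cell line used: HPDE-C7K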
HT-1080 = experiment: cytotoxicity in HT1080 fibrosarcoma cells, cell-based, fluorescence readout (AID 620); assay type: functional; conditions: Homo sapiens
Vero [23] = experiment: Vero cell cytotoxicity, cytotoxicity control for flavivirus capping enzyme inhibitors (AID 588742); assay type: functional; conditions: Chlorocebus sabaeus

CN1CCN(C(=O)CCCN2C(=O)/C(=C/c3cccc(Br)c3)SC2=S)CC1
EC50 [1]: 13.9 µM (active) | EC50 [2]: > 120 µM (not active) | EC50 (BJ [3]): 1.93 µM (active) | EC50 (H4): > 120 µM (not active) | EC50 (BJ [4]): > 150 µM (inconclusive) | EC50 (BJ [5]): > 150 µM (inconclusive) | EC50 [6]: 4.36 µM (active) | EC50 (BJ [7]): > 66.7 µM (inactive) | CC50 (Vero [8]): > 25 µM (active)

O=C1N/C(=C\c2ccc(O)cc2)C(=O)c2ccccc21
CC50 [9]: > 40 µM (active) | EC50 [10]: 0.661 µM (active) | EC50 [11]: 1.15 µM (active) | IC50 [12]: 3.21 µM (active)

Cc1ccc(NC(=O)c2nc(S(=O)(=O)Cc3ccccc3C)ncc2Cl)cc1C
EC50 [13]: 9.97 µM (active) | EC50 (Streptokinase A): 1.32 µM (active) | EC50 (Streptococcus): 22.2 µM (inconclusive) | AC50 [14]: 2.01 µM (active) | IC50 (CHO): 5.02 µM (active) | AC50 [15]: > 380 µM (inconclusive) | EC50 (Protein RecA): 1.31 µM (active) | AC50 [16]: 0.486 µM (active) | AC50 [17]: 30.8 µM (active) | AC50 [18]: 8.07 µM (active) | EC50 [19]: 20.5 µM (active)

O=C(NCc1cccs1)c1nc(O)c2nnn(Cc3ccccc3Cl)c2n1
CC50 (Vero [20]): 14.6 µM (active) | EC50 [21]: > 20 µM (not active) | EC50 [22]: > 20 µM (not active) | EC50 (HT-1080): > 50 µM (not active) | CC50 (Vero [23]): 7 µM (active)
